{
  "source": "patent US20230089073A1",
  "about": "(Carmot Therapeutics, Inc., priority 2021, published 2023)",
  "target": "T1, human GLP-1 receptor (Homo sapiens, UniProt P43220)",
  "T1 construct": "expressed in transfected cells",
  "T1 sequence (P43220 24-463)": "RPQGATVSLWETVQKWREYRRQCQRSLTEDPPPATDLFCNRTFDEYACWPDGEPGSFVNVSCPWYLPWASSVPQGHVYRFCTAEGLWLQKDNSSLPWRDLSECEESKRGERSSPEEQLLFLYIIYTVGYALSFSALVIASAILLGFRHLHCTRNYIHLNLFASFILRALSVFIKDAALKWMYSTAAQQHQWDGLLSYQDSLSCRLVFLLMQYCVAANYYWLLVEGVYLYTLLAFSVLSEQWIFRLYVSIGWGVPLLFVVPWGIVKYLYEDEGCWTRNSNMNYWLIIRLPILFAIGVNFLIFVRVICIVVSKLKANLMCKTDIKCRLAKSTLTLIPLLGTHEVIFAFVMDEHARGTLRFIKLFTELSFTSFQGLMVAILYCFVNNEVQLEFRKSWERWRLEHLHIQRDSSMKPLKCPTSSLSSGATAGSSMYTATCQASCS",
  "experiment": "GLP-1R cAMP Assay",
  "format": "cell-based",
  "settings": "cAMP accumulation in CHO cells stably overexpressing the human GLP-1 receptor; 30 min treatment; HitHunter cAMP kit; read-out: EC50",
  "procedure,_shortened": "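Luminescent enzyme-complementation detection of cAMP, read after cell lysis and overnight incubation, with dose-response curve fitting. Stimulation lasted 30 min, using 20-point triplicate dosing on CHO cells (10,000 per well) stably overexpressing human GLP-1R.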",
  "data": [
    {"compound": "CCn1cncc1Cn1c(CN2CCN(C(=O)c3ccc(COc4ccc(Cl)cc4Cl)o3)CC2)nc2ccc(C(=O)O)cc21", "note": "[Compound 47, 2-[(4-{5-[(2,4-dichlorophenoxy)methyl]furan-2-carbonyl}piperazin-1-yl)methyl]-1-[(1-ethyl-1H-imidazol-5-yl)methyl]-1H-1,3-benzodiazole-6-carboxylic acid]", "values": [
      {"measurement": "EC50", "value": "< 50", "unit": "nM"}
    ]},
    {"compound": "O=C(O)c1ccc2nc(CN3CCC(Oc4ccnc(COc5ccc(Cl)cc5Cl)n4)CC3)n(C[C@@H]3CCO3)c2c1", "note": "[Example 304, (S)-2-((4-((2-((2,4-Dichlorophenoxy)methyl)pyrimidin-4-yl)oxy)piperidin-1-yl)methyl)-1-(oxetan-2-ylmethyl)-1H-benzo[d]imidazole-6-carboxylic acid]", "values": [
      {"measurement": "EC50", "value": "< 50", "unit": "nM"}
    ]},
    {"compound": "O=C(O)c1ccc2nc(CN3CCC(Oc4cccc(COc5ncc(Cl)cc5F)c4)CC3)n(C[C@@H]3CCO3)c2c1", "note": "[Compound 288, 2-{[4-(3-{[(5-chloro-3-fluoropyridin-2-yl)oxy]methyl}phenoxy)piperidin-1-yl]methyl}-1-{[(2S)-oxetan-2-yl]methyl}-1H-1,3-benzodiazole-6-carboxylic acid]", "values": [
      {"measurement": "EC50", "value": "> 500", "unit": "nM"}
    ]},
    {"compound": "CCn1cncc1Cn1c(CN2CCN(C(=O)c3cccc(OCc4ccc(C#N)cc4F)c3)CC2)nc2ccc(C(=O)O)cc21", "note": "[Compound 67, 2-[(4-{3-[(4-cyano-2-fluorophenyl)methoxy]benzoyl}piperazin-1-yl)methyl]-1-[(1-ethyl-1H-imidazol-5-yl)methyl]-1H-1,3-benzodiazole-6-carboxylic acid]", "values": [
      {"measurement": "EC50", "value": "> 500", "unit": "nM"}
    ]},
    {"compound": "Cc1ccc(Oc2cccc(CN3CCN(Cc4nc5ccc(C(=O)O)cc5n4C[C@@H]4CCO4)CC3)c2)cc1", "note": "[Compound 35, 2-[(4-{[3-(4-methylphenoxy)phenyl]methyl}piperazin-1-yl)methyl]-1-{[(2S)-oxetan-2-yl]methyl}-1H-1,3-benzodiazole-6-carboxylic acid]", "values": [
      {"measurement": "EC50", "value": "> 500", "unit": "nM"}
    ]},
    {"compound": "N#Cc1ccc(OCc2cc(OC3CCN(Cc4nc5c(F)cc(C(=O)O)cc5n4C[C@@H]4CCO4)CC3)ccn2)c(F)c1", "note": "[Compound 365]", "values": [
      {"measurement": "EC50", "value": "< 50", "unit": "nM"}
    ]},
    {"compound": "COc1ccc(Oc2cccc(C(=O)N3CCN(Cc4nc5ccc(C(=O)O)cc5n4C[C@@H]4CCO4)CC3)c2)cc1", "note": "[Compound 6, 2-({4-[3-(4-methoxyphenoxy)benzoyl]piperazin-1-yl}methyl)-1-{[(2S)-oxetan-2-yl]methyl}-1H-1,3-benzodiazole-6-carboxylic acid]", "values": [
      {"measurement": "EC50", "value": "> 500", "unit": "nM"}
    ]},
    {"compound": "O=C(O)c1ccc2nc(CN3CCC(Cc4cccc(COc5ccc(Cl)cc5Cl)c4)CC3)n(Cc3ncco3)c2c1", "note": "[Compound 149, 2-{[4-({3-[(2,4-dichlorophenoxy)methyl]phenyl}methyl)piperidin-1-yl]methyl}-1-[(1,3-oxazol-2-yl)methyl]-1H-1,3-benzodiazole-6-carboxylic acid]", "values": [
      {"measurement": "EC50", "value": "< 50", "unit": "nM"}
    ]},
    {"compound": "CCn1cncc1Cn1c(CN2CCC(Cc3cnc(COc4ccc(Cl)cc4C#N)o3)CC2)nc2ccc(C(=O)O)cc21", "note": "[Compound 138, 2-{[4-({2-[(4-chloro-2-cyanophenoxy)methyl]-1,3-oxazol-5-yl}methyl)piperidin-1-yl]methyl}-1-[(1-ethyl-1H-imidazol-5-yl)methyl]-1H-1,3-benzodiazole-6-carboxylic acid]", "values": [
      {"measurement": "EC50", "value": "< 50", "unit": "nM"}
    ]},
    {"compound": "O=C(O)c1ccc2nc(CN3CCC(Cc4cnc(COc5ccc(Cl)cc5Cl)o4)CC3)n(C[C@@H]3CCO3)c2c1", "note": "[Example 60, (S)-2-((4-((2-((2,4-Dichlorophenoxy)methyl)oxazol-5-yl)methyl)piperidin-1-yl)methyl)-1-(oxetan-2-ylmethyl)-1H-benzo[d]imidazole-6-carboxylic acid]", "values": [
      {"measurement": "EC50", "value": "< 50", "unit": "nM"}
    ]},
    {"compound": "CCn1cncc1Cn1c(CN2CCC([C@H](OC)c3cccc(COc4ccc(Cl)cc4Cl)c3)CC2)nc2ccc(C(=O)O)cc21", "note": "(single isomer, unassigned) [Example 205]", "values": [
      {"measurement": "EC50", "value": "50 to 500", "unit": "nM"}
    ]},
    {"compound": "Cc1ccc(OCc2ccc(C(=O)N3CCN(Cc4nc5ccc(C(=O)O)cc5n4C[C@@H]4CCO4)CC3)o2)cc1", "note": "[Compound 42, 2-[(4-{5-[(4-methylphenoxy)methyl]furan-2-carbonyl}piperazin-1-yl)methyl]-1-{[(2S)-oxetan-2-yl]methyl}-1H-1,3-benzodiazole-6-carboxylic acid]", "values": [
      {"measurement": "EC50", "value": "> 500", "unit": "nM"}
    ]}
  ]
}
